Data reported in publication PMC7414031, “Correlation between hemolytic activity, cytotoxicity and systemic in vivo toxicity of synthetic antimicrobial peptides” (Scientific Reports, 2020).
Values after ≈ are worked out from the molar mass of the structure shown. Square brackets hold non-standard residues; d marks the D form. Peptide text beside a SMILES is read from it. N(1-naphthylmethyl)Gly = O=C(O)CNCc1cccc2ccccc12; Nphe = O=C(O)CNCc1ccccc1; NBuGly = CCCCNCC(=O)O

What was measured:
[1] = test system: Staphylococcus aureus; set-up: method as in PMID 30842436; settings: cited from earlier work
[2] = in vitro; type: cell-based, rat (Sprague–Dawley); settings: Sprague-Dawley, rat
In short: (§1)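 Washed heparinized erythrocytes (~5 × 10^8 RBC/mL in PBS) incubated 1 h at 37 °C with peptides in serial 1:1 dilutions (150 to 1.2 µM final). Haemoglobin release read at 405 nm in supernatant; % haemolysis relative to 1% Triton X-100 (100%) and PBS diluent (0%).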

[3] = test system: rat erythrocytes; assay: in vitro; type: cell-based, rat (Sprague–Dawley); settings: for IC10 haemolysis: rat erythrocytes; for IC50: red cells of rat
In short: as §1

[4] = test system: HepG2 cells; type: cell-based, human; settings: 1 h
Description: (§2) An immortalised human keratinocyte (HaCaT) cell line (Gift from David Gram Naym at Bispebjerg Hospital, Denmark), a human liver cancer cell line (HepG2; ATCC HB-8065) and a human epithelial cervical cancer cell line (HeLa; ATCC CCL-2) were cultured to ∼90% confluence after 21–25 h of growth under standard conditions (5% CO2 at 37 °C). Cells were cultured in Dulbecco’s Modified Eagle’s Medium supplemented with 10% (v/v) fetal bovine serum (FBS). All culture media were supplemented with penicillin (100 IU/mL) and streptomycin (100 μg/mL). All cell media and supplements were obtained from Sigma-Aldrich (St. Louis, MO, United States). The 96-well plates were supplied by Corning Costar (Sigma-Aldrich, Brøndby, Denmark). Cell viability assessment was performed on cell monolayers grown to ∼90% confluence in 96-well plates by using the MTS/PMS assay as previously described. Briefly, the adhered cells were washed with PBS solution (37 °C) (ThermoFisher Scientific, Roskilde) and exposed for 1 h at 37 °C to 100 μL of peptides dissolved in the medium also used for culturing of the cell line (at concentrations in the range 0–1,000 μg/mL). The cells were subsequently washed twice with 37 °C PBS and then 100 μL of an MTS/PMS solution in media, consisting of 240 μg/mL MTS (Promega, Madison, WI, United States) and 2.4 mg/mL PMS (Promega, Madison, WI, United States), was added to the cells, which then were incubated for 1 h at 37 °C protected from light. A plate reader (SpectraMax i3X; Molecular devices, San Jose, CA) was used to measure the absorbance at 492 nm. The relative viability was calculated by using 0.2% (w/v) sodium dodecyl sulfate (SDS) as the positive control, while cells exposed to medium without test compound were used as the negative control.

[5] = test system: HaCaT cells; type: cell-based, human; settings: 1 h
Description: as §2

[6] = test system: Staphylococcus pseudintermedius; settings: cited from earlier work; for S.p. MIC: Staphylococcus pseudintermedius, Table S5, in µM
[7] = test system: Pseudomonas aeruginosa; set-up: method as in PMID 30842436; settings: cited from earlier work
[8] = in vitro; type: cell-based, human; settings: human
In short: as §1

[9] = test system: human erythrocytes; assay: in vitro; type: cell-based; settings: for IC10 haemolysis: human erythrocytes; for IC50: red cells of human
In short: as §1

[10] = in vitro; type: cell-based, dog; settings: dog
In short: as §1

[11] = test system: canine erythrocytes; assay: in vitro; type: cell-based, dog; settings: for IC10 haemolysis: canine erythrocytes; for IC50: red cells of canine
In short: as §1

[12] = in vitro; type: cell-based, bovine; settings: bovine
In short: as §1

[13] = test system: HeLa cells; type: cell-based, human; settings: 1 h
Description: as §2

[14] = at in vivo dosing concentrations
Description: (§3) To further address the actual correlation of the in vitro observations to an in vivo situation, three compounds were selected for animal studies. […] Peptides where chosen to include compounds with ranging antibacterial activity, residue composition, hydrophobicity and in vitro mammalian toxicity, deliberately excluding compounds too hydrophobic and too toxic (50% > lysis at 150 µM in vitro against rats and human). […] All the compounds were tested at the same concentrations 0, 0.01 and 1.0 mg/kg rat.
(§4) The compounds were formulated in sterile PBS (tablets, Medicago, Sweden), sonicated and sterile filtered through a Millex-GV filter (0.22 µm pore size, Ø 13 mm, Merck) before use. […] Doses were 0 (vehicle control), 0.01 and 1.0 mg/kg rat).

[15] = Dose-ranging intravenous toxicity study in rats; type: in vivo, rat (WistarHan); settings: rat
Description: All animals were injected with a single dose of 0.5 mL (2 mL/kg body weight) and it was slowly administered over 2 min and 10 s. Shorter cationic tripeptides[4] and synthetic AMPs[72] have previously been evaluated employing the intravenous route. It was an interesting observation that the animals survived the systemic tail vein injection seemingly unaffected. This observation is in contrast to related synAMPs investigated as intravenous antibiotics which induced acute toxicity and paralysis at higher concentrations.

[16] = test system: bovine erythrocytes; assay: in vitro; type: cell-based; settings: bovine erythrocytes
In short: as §1

[17] = test system: human erythrocytes; settings: cited from earlier work
[18] = physchem; settings: PBS
Description: as §3, §4

SMILES | MIC against Staphylococcus aureus [1] | hemolysis at 1 h, 150 µM [2] | IC10 haemolysis [3] | IC50 [3] | IC50 [4] | IC50 [5] | S.p. MIC [6] | MIC against Staphylococcus pseudintermedius [6] | MIC against Pseudomonas aeruginosa [7] | hemolysis at 1 h, 150 µM [8] | IC10 haemolysis [9] | IC50 [9] | hemolysis at 1 h, 150 µM [10] | IC10 haemolysis [11] | IC50 [11] | hemolysis at 1 h, 150 µM [12] | IC50 [13] | Solubility in PBS (in words) [14] | IC10 haemolysis [16] | other results
CCCCN(CC(=O)N[C@@H](CCCCN)C(=O)N[C@@H](CCCCN)C(=O)N[C@@H](CCCCN)C(N)=O)C(=O)CN(Cc1cccc2ccccc12)C(=O)CN(Cc1ccccc1)C(=O)CNCc1cccc2ccccc12 [Compound 2, (N1-Nal)Gly-(N-Phe)Gly-(N1-Nal)Gly-(N-Bu)Gly-Lys-Lys-Lys] (H-[N(1-naphthylmethyl)Gly][Nphe][N(1-naphthylmethyl)Gly][NBuGly]KKK-NH2) | 16 µg/mL (≈ 15.1 µM) | 100% | 20.3 µM | 35.1 µM | 355 µM | 89 µM | 7.6 µM | 8 µg/mL (≈ 7.57 µM) | 32 µg/mL (≈ 30.3 µM) | 78.1% | 11.2 µM | 40 µM | 100% | 12.8 µM | 32 µM | < 8% | – | – | – | Haemolytic activity (in words) [9]: amongst the top five most haemolytic compounds
CC(C)C[C@@H](NC(=O)[C@@H](Cc1ccc2ccccc2c1)NC(=O)[C@@H](Cc1ccccc1)NC(=O)[C@H](N)Cc1ccc2ccccc2c1)C(=O)N[C@@H](CCCCN)C(=O)N[C@@H](CCCCN)C(=O)N[C@@H](CCCCN)C(N)=O [Compound 4, (2-Nal)Ala-Phe-(2-Nal)Ala-Leu-Lys-Lys-Lys] (HELM PEPTIDE1{[N[C@H](Cc1ccc2ccccc2c1)C(=O)[*:2]].[dF].[O=C([C@@H](Cc1ccc2ccccc2c1)N[*:1])[*:2]].[dL].K.K.K.[am]}$$$$V2.0) | 32 µg/mL (≈ 30.3 µM) | < 8% | > 150 µM | > 150 µM | – | 433 µM | 15.1 µM | 16 µg/mL (≈ 15.1 µM) | > 64 µg/mL | < 8% | > 150 µM | > 150 µM | < 8% | > 150 µM | > 150 µM | < 8% | 783 µM | freely soluble | – | Clinical signs of discomfort after injection ([15]; i.v. tail vein, high dose (1 mg/mL), two animals, after initial 30 min recovery): less mobility and reactivity to stimuli; Release of haemoglobin in vivo ([15]; i.v., high dose, 3 h): slightly elevated release of haemoglobin; Adverse effects at 8 h after injection ([15]; i.v., high dose, 8 h): no adverse effects were observed; Bilirubin concentration ([15]; i.v., plasma 24 h): no elevated concentration was observed; AST and ALT concentration ([15]; i.v., plasma 24 h, high dose for 4): slight increase of both AST and ALT
CC(C)C[C@H](NC(=O)[C@H](CCCCN)NC(=O)[C@H](CCCCN)NC(=O)[C@@H](N)CCCCN)C(=O)N[C@@H](Cc1cccc2ccccc12)C(=O)N[C@@H](Cc1ccccc1)C(=O)N[C@@H](Cc1cccc2ccccc12)C(N)=O [Compound 7, Lys-Lys-Lys-Leu-(1-Nal)Ala-Phe(1-Nal)Ala] (HELM PEPTIDE1{K.K.K.L.[O=C([C@H](Cc1cccc2ccccc12)N[*:1])[*:2]].F.[O=C([C@H](Cc1cccc2ccccc12)N[*:1])[*:2]].[am]}$$$$V2.0) | 16 µg/mL (≈ 15.1 µM) | 54.3% | 76.9 µM | 143 µM | – | – | – | 8 µg/mL (≈ 7.57 µM) | 16 µg/mL (≈ 15.1 µM) | 83.8% | 35.2 µM | 82.6 µM | 102% | 32.7 µM | 47.2 µM | 16% | – | – | 118.8 µM | Haemolysis at 80 µM (in words) [3]: near total haemolysis; Haemolysis at 80 µM (in words) [9]: near total haemolysis; Haemolysis at 80 µM (in words) [11]: near total haemolysis; Previously reported haemolytic activity against human erythrocytes (in words) [17]: high in vitro haemolytic activity
CC(C)C[C@@H](NC(=O)[C@H](CCCCN)NC(=O)[C@H](CCCCN)NC(=O)[C@@H](N)CCCCN)C(=O)N[C@H](Cc1cccc2ccccc12)C(=O)N[C@H](Cc1ccccc1)C(=O)N[C@H](Cc1cccc2ccccc12)C(N)=O [Compound 11, Lys-Lys-Lys-Leu-(1-Nal)Ala-Phe-(1-Nal)Ala] (HELM PEPTIDE1{K.K.K.[dL].[O=C([C@@H](Cc1cccc2ccccc12)N[*:1])[*:2]].[dF].[O=C([C@@H](Cc1cccc2ccccc12)N[*:1])[*:2]].[am]}$$$$V2.0) | 8 µg/mL (≈ 7.57 µM) | 11.3% | 128.2 µM | > 150 µM | 233 µM | 517 µM | 1.9 µM | 2 µg/mL (≈ 1.89 µM) | 8 µg/mL (≈ 7.57 µM) | 33.3% | 32.8 µM | > 150 µM | 40.7% | 30.4 µM | > 150 µM | 17.4% | 233 µM | required mild heating and sonication at the highest concentration | 89.2 µM | solubility [18]: 1000 µg/mL (≈ 947 µM); Maximal serum concentration (calculated from dose) ([15]; 1 mg/mL in PBS injected, assuming 17 mL blood volume for a 250 g rat): 15 µM; Whole blood haemolysis in vivo ([15]; in vivo, iv): not observed in vivo
